Several values for one entry are separate records, joined by “and”; a condition that tells them apart may be missing. Equal values may be shown once. Inconclusive results and toxic doses are left out. No stated cut-off is given here; in the data, active means T/C of 150% or more; inactive means T/C below 125%.
Tested on: L1210 leukemia ip in BDF1 mice, survival T/C
Test: NCI In Vivo Anticancer Drug Screen. Data for tumor model L1210 Leukemia (intraperitoneal) in B6D2F1 (BDF1) mice
Settings: endpoint: mean survival time, higher = longer survival
How it was run: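 Antitumor effect is assessed in tumor-bearing animals. Survival in the compound arm is compared with a vehicle-dosed control arm and expressed as their quotient.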

[1] = dose: 50.0 mg/kg/injection, schedule: Q01DX009 (ip), vehicle: saline
[2] = dose: 100.0 mg/kg/injection, schedule: Q01DX001 (ip), vehicle: saline
[3] = dose: 100.0 mg/kg/injection, schedule: Q01DX009 (ip), vehicle: saline
[4] = dose: 200.0 mg/kg/injection, schedule: Q01DX001 (ip), vehicle: saline
[5] = dose: 100.0 mg/kg/injection, schedule: Q04DX003 (ip), vehicle: saline
[6] = dose: 200.0 mg/kg/injection, schedule: Q04DX003 (ip), vehicle: saline
[7] = dose: 400.0 mg/kg/injection, schedule: Q04DX003 (ip), vehicle: saline
[8] = dose: 200.0 mg/kg/injection, schedule: Q01DX009 (ip), vehicle: saline
[9] = dose: 100.0 mg/kg/injection, schedule: Q01DX009 (ip), vehicle: Klucel (hydroxypropylcellulose) (HPC)
[10] = dose: 400.0 mg/kg/injection, schedule: Q01DX009 (ip), vehicle: Klucel (hydroxypropylcellulose) (HPC)
[11] = dose: 100.0 mg/kg/injection, schedule: Q04DX003 (ip), vehicle: Klucel (hydroxypropylcellulose) (HPC)
[12] = dose: 200.0 mg/kg/injection, schedule: Q04DX003 (ip), vehicle: Klucel (hydroxypropylcellulose) (HPC)
[13] = dose: 400.0 mg/kg/injection, schedule: Q04DX003 (ip), vehicle: Klucel (hydroxypropylcellulose) (HPC)
[14] = dose: 200.0 mg/kg/injection, schedule: Q01DX009 (ip), vehicle: Klucel (hydroxypropylcellulose) (HPC)

Measured: T/C

CN(C)[C@@H]1C(=O)C(C(=O)NCNC(CO)(CO)CO)=C(O)[C@@]2(O)C(=O)C3=C(O)c4c(O)cccc4[C@@](C)(O)[C@H]3C[C@@H]12
inactive: dose: 1.0 mg/kg/injection, schedule: Q01DX Z (ip), vehicle: saline 100 % of control | dose: 4.0 mg/kg/injection, schedule: Q01DX Z (ip), vehicle: saline 100 % of control | dose: 14.0 mg/kg/injection, schedule: Q01DX Z (ip), vehicle: saline 108 % of control | dose: 15.0 mg/kg/injection, schedule: Q01DX Z (ip), vehicle: saline 102 % of control | dose: 25.0 mg/kg/injection, schedule: Q01DX009 (ip), vehicle: saline 104 % of control | dose: 28.0 mg/kg/injection, schedule: Q01DX Z (ip), vehicle: saline 94 % of control | [1] 97 % of control and 101 % of control | dose: 60.0 mg/kg/injection, schedule: Q01DX Z (ip), vehicle: saline 100 % of control | [2] 93 % of control and 95 % of control | [3] 98 % of control and 97 % of control | dose: 100.0 mg/kg/injection, schedule: Q04DX003 (ip), vehicle: acetone 92 % of control | dose: 112.0 mg/kg/injection, schedule: Q01DX Z (ip), vehicle: saline 93 % of control | dose: 120.0 mg/kg/injection, schedule: Q01DX Z (ip), vehicle: saline 113 % of control | [4] 108 % of control and 106 % of control | dose: 200.0 mg/kg/injection, schedule: Q04DX003 (ip), vehicle: acetone 100 % of control and 94 % of control | dose: 224.0 mg/kg/injection, schedule: Q01DX Z (ip), vehicle: saline 115 % of control | dose: 240.0 mg/kg/injection, schedule: Q01DX Z (ip), vehicle: saline 111 % of control | dose: 266.0 mg/kg/injection, schedule: Q01DX009 (ip), vehicle: saline 96 % of control | dose: 400.0 mg/kg/injection, schedule: Q01DX001 (ip), vehicle: saline 104 % of control and 92 % of control | dose: 400.0 mg/kg/injection, schedule: Q04DX003 (ip), vehicle: acetone 91 % of control and 90 % of control

O=P(Cc1ccccc1)(N1CCOCC1)N1CCOCC1
inactive: [5] 100 % of control | [6] 93 % of control | [7] 104 % of control

COc1ccc(/C=C/C(=O)c2ccc(OC)c(OC)c2)cc1O
inactive: [3] 96 % of control | [5] 95 % of control | [8] 120 % of control | [6] 98 % of control | dose: 400.0 mg/kg/injection, schedule: Q01DX009 (ip), vehicle: saline 91 % of control | [7] 95 % of control

COc1ccc(/C=N/NC(=O)CNC(=O)c2ccc(Cl)c(Cl)c2)cc1
inactive: dose: 12.5 mg/kg/injection, schedule: Q01DX009 (ip), vehicle: saline with Tween-80 104 % of control

Cc1ccc([N+](=O)[O-])cc1NC(=O)Nc1ccccc1O
inactive: [9] 92 % of control | [10] 87 % of control

FC(F)(F)c1ccc(Cl)c(NC2=NCCS2)c1
inactive: dose: 100.0 mg/kg/injection, schedule: Q01DX001 (ip), vehicle: Klucel (hydroxypropylcellulose) (HPC) 114 % of control | [11] 97 % of control | dose: 200.0 mg/kg/injection, schedule: Q01DX001 (ip), vehicle: Klucel (hydroxypropylcellulose) (HPC) 103 % of control | [12] 98 % of control | dose: 400.0 mg/kg/injection, schedule: Q01DX001 (ip), vehicle: Klucel (hydroxypropylcellulose) (HPC) 97 % of control | [13] 88 % of control

CC1([N+](=O)[O-])COP(=O)(NC2CCCC2)OC1 (configuration not stated)
inactive: dose: 50.0 mg/kg/injection, schedule: Q01DX001 (ip), vehicle: saline 106 % of control | [2] 108 % of control | [4] 102 % of control

CNS(=O)(=O)c1ccc(C(N)=S)cc1
inactive: dose: 100.0 mg/kg/injection, schedule: Q01DX001 (ip), vehicle: gum acacia 93 % of control | dose: 200.0 mg/kg/injection, schedule: Q01DX001 (ip), vehicle: gum acacia 106 % of control | dose: 400.0 mg/kg/injection, schedule: Q01DX001 (ip), vehicle: gum acacia 98 % of control

C(=C\c1cc[n+](CCc2ccccc2)cc1)/c1ccccc1
inactive: dose: 6.25 mg/kg/injection, schedule: Q04DX003 (ip), vehicle: saline with Tween-80 110 % of control | dose: 12.5 mg/kg/injection, schedule: Q04DX003 (ip), vehicle: saline with Tween-80 89 % of control | dose: 25.0 mg/kg/injection, schedule: Q04DX003 (ip), vehicle: saline with Tween-80 101 % of control

Cc1ccc(NNC(=O)C(O)C(O)C(O)C(O)CO)cc1 (configuration not stated)
inactive: [1] 92 % of control | [3] 96 % of control | [8] 100 % of control

COc1ccc([N+](=O)[O-])cc1NC(=O)Nc1c(C)n(C)n(-c2ccccc2)c1=O
inactive: dose: 50.0 mg/kg/injection, schedule: Q01DX009 (ip), vehicle: Klucel (hydroxypropylcellulose) (HPC) 108 % of control | [9] 105 % of control | [14] 97 % of control

O=C(O)c1ccccc1C(=O)c1ccc(Cl)cc1
inactive: [9] 100 % of control | [14] 86 % of control | [10] 100 % of control

COc1ccccc1CN1CCCN(Cc2ccccc2OC)C1c1ccc(N(CCCl)CCCl)cc1Cl
inactive: dose: 50.0 mg/kg/injection, schedule: Q01DX001 (ip), vehicle: carboxymethylcellulose (CMC) 95 % of control | dose: 100.0 mg/kg/injection, schedule: Q01DX001 (ip), vehicle: carboxymethylcellulose (CMC) 101 % of control | dose: 200.0 mg/kg/injection, schedule: Q01DX001 (ip), vehicle: carboxymethylcellulose (CMC) 98 % of control | dose: 400.0 mg/kg/injection, schedule: Q01DX001 (ip), vehicle: carboxymethylcellulose (CMC) 95 % of control

CCCCCCC(=O)CCCC(C)CCCC(C)C (configuration not stated)
inactive: [9] 91 % of control | [11] 93 % of control | [14] 97 % of control | [12] 95 % of control | [10] 98 % of control | [13] 88 % of control

NCCCCCCN=C(N)C(N)=NCCCCCCN
inactive: dose: 1.5 mg/kg/injection, schedule: Q01DX009 (ip), vehicle: Klucel (hydroxypropylcellulose) (HPC) 96 % of control | dose: 3.0 mg/kg/injection, schedule: Q01DX009 (ip), vehicle: Klucel (hydroxypropylcellulose) (HPC) 112 % of control | dose: 6.0 mg/kg/injection, schedule: Q01DX009 (ip), vehicle: Klucel (hydroxypropylcellulose) (HPC) 102 % of control | dose: 12.5 mg/kg/injection, schedule: Q04DX003 (ip), vehicle: Klucel (hydroxypropylcellulose) (HPC) 93 % of control | dose: 25.0 mg/kg/injection, schedule: Q04DX003 (ip), vehicle: Klucel (hydroxypropylcellulose) (HPC) 93 % of control

CCCCCC(C)NCC(C)(C)O (configuration not stated)
inactive: dose: 75.0 mg/kg/injection, schedule: Q01DX001 (ip), vehicle: acid diluted with saline 102 % of control

NC(=S)N/N=C/c1cc2c(cc1Br)OCO2
inactive: dose: 50.0 mg/kg/injection, schedule: Q01DX001 (ip), vehicle: alcohol 93 % of control | dose: 100.0 mg/kg/injection, schedule: Q01DX001 (ip), vehicle: alcohol 122 % of control | dose: 200.0 mg/kg/injection, schedule: Q01DX001 (ip), vehicle: alcohol 112 % of control | dose: 400.0 mg/kg/injection, schedule: Q01DX001 (ip), vehicle: alcohol 104 % of control

COc1ccc(NC(=O)CC(C)=O)cc1
inactive: dose: 100.0 mg/kg/injection, schedule: Q01DX001 (ip), vehicle: other 92 % of control | dose: 100.0 mg/kg/injection, schedule: Q04DX003 (ip), vehicle: saline with Tween-80 94 % of control | dose: 200.0 mg/kg/injection, schedule: Q01DX001 (ip), vehicle: other 97 % of control | dose: 200.0 mg/kg/injection, schedule: Q04DX003 (ip), vehicle: saline with Tween-80 100 % of control | dose: 400.0 mg/kg/injection, schedule: Q01DX001 (ip), vehicle: other 103 % of control | dose: 400.0 mg/kg/injection, schedule: Q04DX003 (ip), vehicle: saline with Tween-80 99 % of control

Reference: PubChem BioAssay AID248 (DTP/NCI, 2004)
